The conditions of the data set: in vivo. As to the method:
Approved by the Medical Ethics Committee of Shanxi Medical University (2018LL349), a total of 26 adults including 14 men and 12 women are recruited by the team to participate in the study.
All the blood samples were stored at −20 DEG C. until the end of the analysis.
1 mL of blood and 1 mL of tert-butanol (IS, 87 mg/mL) were added to a headspace vial, diluted with 3 mL of ultrapure water, mixed in a sealed condition, and then analyzed by the headspace gas chromatography.
Metabolites EtG and EtS in blood samples were measured by liquid chromatography-tandem quadrupole mass spectrometry (LC-MS/MS) with EtG-D5 and EtS-D5 as internal standards. […] Then 800 μL of 80% acetonitrile in methanol was added, and the mixture is precipitated at 0 DEG C. for 10min. After that, centrifugation was performed at 13000 rpm for 5 min, supernatant was taken out, and dried, by blowing, with nitrogen at 35 DEG C., and then re-dissolved with 400 μL of 5% acetonitrile in water and centrifuged again at 13000 rpm for 5 min.
Chromatograph separation was performed via an LC-20 A system. Conditions of the chromatograph were as follows:
chromatographic column: Inertsil ODS-3 column (2.1 mm×100 mm, 3 μm; Shimadzu, Japan) , and column temperature: 35 DEG C.
Targeted substances were tested by a tandom mass spectrometer (TRAP4,000, Sciex, AB). The specific conditions were as follows:
Ion source: electron spray ionization (ESI); voltage of ion spray: −4000 V, and temperature: 500 DEG C.; curtain gas, nebulizer (Gas 1), and heating auxiliary gas (Gas 2): 40 psi, 50 psi, and 35 psi respectively.
Scanning mode: anions+multiple reaction monitoring (MRM).
The pharmacokinetic parameters were calculated by a non-compartmental model using a DAS 3.0 software. All data was summarized using descriptive statistics. […] All statistical analyses were performed using version 13.0 of an IBM SPSS® software (SPSS Inc., Chicago, IL, USA).

Molecules are shown by their SMILES. Read-outs that look alike come from different tables or passages of the source.

With `CCOS(=O)(=O)O` [EtS, Ethyl sulphate], where the note is “human, 0.72 g/kg”, the “Cmax, peak concentration” value turned out to be 170 ng/mL. In addition, where the note is “human, po”, the AUC (0-t), area under the curve came out at 1040 ± 340 ng·h/mL; the “Cmax, peak concentration” value stood at 170 ± 40 ng/mL; the “t1/2z, half-life period” value was 2.04 ± 0.76 h. Moreover, the “LOD (h) in human blood” value (po) is 16.92 ± 6.23 h.

For the compound `CCO[C@@H]1O[C@H](C(=O)O)[C@@H](O)[C@H](O)[C@H]1O` [EtG, Ethyl glucuronide], where the note is “human, po”, the AUC (0-t), area under the curve came to 1990 ± 780 ng·h/mL; the “Cmax, peak concentration” value was 310 ± 110 ng/mL; the “Tmax, time to peak” value turned out to be 4.12 ± 1.07 h; the “t1/2z, half-life period” value stood at 2.56 ± 0.89 h. In addition, the “LOD (h) in human blood” value (po) amounted to 22.15 ± 4.42 h.

For `CCO` [alcohol, Alcohol], where the note is “human, po”, the “AUC (0-t), area under the curve” value is 1,715.23 ± 626.72 mg/L*; the “Clz/F, clearance rate” value was determined as 0.49 ± 0.33 L/h; the “Tmax, time to peak” value worked out at 2.02 ± 0.54 h; the “Vz/F, apparent volume of distribution” value is listed as 0.69 ± 0.49 L/kg. In addition, where the note is “po”, the “Detection window time (maximum observed value) in blood” value was 3 to 8 h and the “LOD (h) in human blood” value is on record as 5.81 ± 1.74 h.

The values are drawn from US20230384334A1, “METHOD FOR CALCULATING DRINKING TIME” (Shanxi Medical University, priority 2022, published 2023).
